In patent US20260327204A1, “DEGRADERS OF CYCLIN-DEPENDENT KINASE 12/13, COMPOSITIONS, AND USES THEREOF” (ZHEJIANG UNIVERSITY, priority 2023, published 2026):
Read-outs that look alike come from different tables or passages of the source.

Columns and labels:
CDK12 [1] = biological target: T1, CDK12 (Homo sapiens, UniProt Q9NYV4); test: Reversal of CDK12 degradation by proteasome inhibitor MG132, Western blot; assay type: cell-based; parameters: endogenous in cells; conditions: MDA-MB-231, 24 h treatment, MG132 added 12 h before sample collection
T1 sequence (Q9NYV4 whole entry): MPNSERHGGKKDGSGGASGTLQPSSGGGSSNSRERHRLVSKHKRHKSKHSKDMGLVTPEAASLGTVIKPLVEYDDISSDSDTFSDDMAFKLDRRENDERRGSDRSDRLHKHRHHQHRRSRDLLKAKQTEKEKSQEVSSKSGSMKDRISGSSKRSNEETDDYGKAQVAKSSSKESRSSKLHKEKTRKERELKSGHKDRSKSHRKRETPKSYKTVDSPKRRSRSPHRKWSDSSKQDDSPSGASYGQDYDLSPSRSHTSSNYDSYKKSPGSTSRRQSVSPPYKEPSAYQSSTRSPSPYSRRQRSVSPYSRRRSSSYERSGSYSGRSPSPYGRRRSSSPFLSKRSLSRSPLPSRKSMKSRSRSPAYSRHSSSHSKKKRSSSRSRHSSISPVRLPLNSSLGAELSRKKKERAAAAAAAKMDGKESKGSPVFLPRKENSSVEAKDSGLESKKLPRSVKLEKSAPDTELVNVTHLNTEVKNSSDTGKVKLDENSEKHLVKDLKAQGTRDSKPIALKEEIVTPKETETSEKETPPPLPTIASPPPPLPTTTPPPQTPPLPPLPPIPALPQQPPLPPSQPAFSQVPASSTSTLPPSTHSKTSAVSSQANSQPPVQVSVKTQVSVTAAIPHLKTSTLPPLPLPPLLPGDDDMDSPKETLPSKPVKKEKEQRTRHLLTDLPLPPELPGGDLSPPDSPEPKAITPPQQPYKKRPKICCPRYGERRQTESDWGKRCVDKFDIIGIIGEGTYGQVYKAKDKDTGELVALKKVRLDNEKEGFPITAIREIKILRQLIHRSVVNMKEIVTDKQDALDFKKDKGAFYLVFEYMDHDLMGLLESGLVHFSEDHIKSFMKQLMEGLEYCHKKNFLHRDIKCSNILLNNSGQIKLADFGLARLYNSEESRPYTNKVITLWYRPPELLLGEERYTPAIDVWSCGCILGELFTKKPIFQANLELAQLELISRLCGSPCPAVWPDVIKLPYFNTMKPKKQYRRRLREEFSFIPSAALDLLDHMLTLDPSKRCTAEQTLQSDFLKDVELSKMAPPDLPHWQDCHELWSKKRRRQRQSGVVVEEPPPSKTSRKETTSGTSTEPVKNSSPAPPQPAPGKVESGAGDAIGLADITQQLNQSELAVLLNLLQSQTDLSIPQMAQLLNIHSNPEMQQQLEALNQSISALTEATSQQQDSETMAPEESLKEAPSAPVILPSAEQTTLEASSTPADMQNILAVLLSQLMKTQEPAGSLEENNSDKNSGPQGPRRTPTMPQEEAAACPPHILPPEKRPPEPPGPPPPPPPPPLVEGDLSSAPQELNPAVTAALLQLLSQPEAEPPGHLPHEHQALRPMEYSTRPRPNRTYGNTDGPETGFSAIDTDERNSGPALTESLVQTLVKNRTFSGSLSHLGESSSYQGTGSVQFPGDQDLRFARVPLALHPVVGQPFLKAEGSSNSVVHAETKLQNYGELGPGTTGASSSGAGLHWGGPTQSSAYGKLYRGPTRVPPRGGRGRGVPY
T1 sequence (O75909 whole entry partner): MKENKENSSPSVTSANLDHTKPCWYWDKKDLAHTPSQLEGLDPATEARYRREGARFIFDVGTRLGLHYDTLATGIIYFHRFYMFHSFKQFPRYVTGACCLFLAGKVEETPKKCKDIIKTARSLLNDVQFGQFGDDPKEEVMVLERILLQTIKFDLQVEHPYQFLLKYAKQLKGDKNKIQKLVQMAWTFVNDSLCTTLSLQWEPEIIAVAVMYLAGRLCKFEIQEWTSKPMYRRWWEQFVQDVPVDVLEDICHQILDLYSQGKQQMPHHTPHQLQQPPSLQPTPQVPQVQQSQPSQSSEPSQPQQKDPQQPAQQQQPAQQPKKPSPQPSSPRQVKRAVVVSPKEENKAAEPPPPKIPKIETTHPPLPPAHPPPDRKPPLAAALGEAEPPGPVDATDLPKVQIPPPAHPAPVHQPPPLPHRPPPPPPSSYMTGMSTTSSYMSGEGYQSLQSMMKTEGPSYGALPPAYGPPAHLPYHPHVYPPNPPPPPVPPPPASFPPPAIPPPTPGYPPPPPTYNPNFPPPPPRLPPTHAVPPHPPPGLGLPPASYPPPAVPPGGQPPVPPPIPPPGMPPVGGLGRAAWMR
Method: (§1) • Cell lines: HCT-116, Jurkat, or MDA-MB-231 • Culture medium: DMEM/RIPM-1640+10% Hyclone serum • Compound dissolution method: The compounds (small molecule conjugates as shown in Formulae 101-147, MG132) were dissolved in DMSO to prepare a 50 mM stock solution and then diluted to the corresponding concentrations.
(§2) (3) Compound treatment: The 50 mM compound stock solution was diluted with cell culture medium to a final concentration of 0.01 μM-3 μM. Cells were incubated in a 37 °C incubator with 5% CO2 for 3 h-48 h. The DMSO group served as the negative control.

[2] = In vivo pharmacokinetics in mice; conditions: mouse, plasma, ip, 30 mg/kg, intraperitoneal
CDK13 [3] = biological target: T2, CDK13 (Homo sapiens, UniProt Q14004); test: Reversal of CDK13 degradation by proteasome inhibitor MG132, Western blot; assay type: cell-based; parameters: endogenous in cells; conditions: MDA-MB-231, 24 h treatment, MG132 added 12 h before sample collection
T2 sequence (Q14004 whole entry): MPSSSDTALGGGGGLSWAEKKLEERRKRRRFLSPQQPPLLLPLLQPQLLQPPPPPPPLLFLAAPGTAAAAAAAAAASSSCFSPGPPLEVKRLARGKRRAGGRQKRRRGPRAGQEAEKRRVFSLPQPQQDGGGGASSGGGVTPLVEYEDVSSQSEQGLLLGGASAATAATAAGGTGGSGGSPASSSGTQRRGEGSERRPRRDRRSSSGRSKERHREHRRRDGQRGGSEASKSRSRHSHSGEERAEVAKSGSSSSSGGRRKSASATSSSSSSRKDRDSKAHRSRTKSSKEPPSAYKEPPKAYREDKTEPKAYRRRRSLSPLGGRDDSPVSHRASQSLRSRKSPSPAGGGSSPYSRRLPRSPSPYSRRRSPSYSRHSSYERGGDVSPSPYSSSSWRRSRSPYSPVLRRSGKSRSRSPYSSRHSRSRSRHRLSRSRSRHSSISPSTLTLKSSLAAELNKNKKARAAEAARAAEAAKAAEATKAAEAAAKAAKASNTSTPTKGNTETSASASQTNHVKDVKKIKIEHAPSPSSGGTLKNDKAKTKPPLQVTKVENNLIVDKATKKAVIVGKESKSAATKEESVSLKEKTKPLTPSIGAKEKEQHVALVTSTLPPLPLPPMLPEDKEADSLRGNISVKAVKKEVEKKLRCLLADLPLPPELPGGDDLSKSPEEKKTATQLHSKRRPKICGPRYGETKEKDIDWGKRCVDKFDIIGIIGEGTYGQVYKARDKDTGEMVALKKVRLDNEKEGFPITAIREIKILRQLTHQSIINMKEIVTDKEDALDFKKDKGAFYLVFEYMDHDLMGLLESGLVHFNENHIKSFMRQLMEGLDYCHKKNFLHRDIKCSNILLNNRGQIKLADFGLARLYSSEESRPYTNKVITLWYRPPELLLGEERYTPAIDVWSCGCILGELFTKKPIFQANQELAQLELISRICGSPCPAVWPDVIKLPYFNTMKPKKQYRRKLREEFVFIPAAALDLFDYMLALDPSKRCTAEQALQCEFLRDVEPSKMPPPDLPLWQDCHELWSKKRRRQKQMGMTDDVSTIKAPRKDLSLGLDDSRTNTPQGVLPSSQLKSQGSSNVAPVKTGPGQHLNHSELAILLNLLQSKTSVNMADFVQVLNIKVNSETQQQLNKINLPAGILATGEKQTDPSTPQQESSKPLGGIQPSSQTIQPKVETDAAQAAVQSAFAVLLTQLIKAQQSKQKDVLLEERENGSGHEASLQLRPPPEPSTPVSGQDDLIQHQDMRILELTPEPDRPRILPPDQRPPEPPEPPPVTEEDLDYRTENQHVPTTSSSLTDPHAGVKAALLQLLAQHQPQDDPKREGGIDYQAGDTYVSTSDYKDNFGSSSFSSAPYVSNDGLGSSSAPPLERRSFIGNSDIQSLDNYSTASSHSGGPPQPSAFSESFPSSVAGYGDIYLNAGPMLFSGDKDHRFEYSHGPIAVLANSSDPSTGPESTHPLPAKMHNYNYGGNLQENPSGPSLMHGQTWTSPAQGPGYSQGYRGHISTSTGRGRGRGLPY
T2 sequence (O75909 whole entry partner): as the sequence (O75909 whole entry partner) above
Method: as §1, §2

CDK12 [4] = biological target: T1, CDK12; test: Western blot degradation of CDK12 (Example 3); assay type: cell-based; parameters: degradation of CDK12/13 protein in leukemia cells KASUMI-1, MV4-11, and Jurkat; endogenous in cells
CCNK = test: Reversal of CCNK degradation by proteasome inhibitor MG132, Western blot; assay type: cell-based; conditions: MDA-MB-231, 24 h treatment, MG132 added 12 h before sample collection
Method: as §1, §2
In the figures, CDK12, CDK13, and CCNK are the target proteins under study, and β-Actin and GAPDH are the internal reference proteins. Internal reference proteins are used to indicate the total protein amount in each experimental group for quantitative analysis.

hERG channel = biological target: T3, hERG channel (Homo sapiens, UniProt Q12809); test: Manual patch-clamp of hERG channel currents stably expressed in HEK293 cells; assay type: cell-based; conditions: 0.3 μM-30 μM, HEK293, room temperature
T3 construct: manual patch clamp of tail current
T3 sequence (Q12809 whole entry): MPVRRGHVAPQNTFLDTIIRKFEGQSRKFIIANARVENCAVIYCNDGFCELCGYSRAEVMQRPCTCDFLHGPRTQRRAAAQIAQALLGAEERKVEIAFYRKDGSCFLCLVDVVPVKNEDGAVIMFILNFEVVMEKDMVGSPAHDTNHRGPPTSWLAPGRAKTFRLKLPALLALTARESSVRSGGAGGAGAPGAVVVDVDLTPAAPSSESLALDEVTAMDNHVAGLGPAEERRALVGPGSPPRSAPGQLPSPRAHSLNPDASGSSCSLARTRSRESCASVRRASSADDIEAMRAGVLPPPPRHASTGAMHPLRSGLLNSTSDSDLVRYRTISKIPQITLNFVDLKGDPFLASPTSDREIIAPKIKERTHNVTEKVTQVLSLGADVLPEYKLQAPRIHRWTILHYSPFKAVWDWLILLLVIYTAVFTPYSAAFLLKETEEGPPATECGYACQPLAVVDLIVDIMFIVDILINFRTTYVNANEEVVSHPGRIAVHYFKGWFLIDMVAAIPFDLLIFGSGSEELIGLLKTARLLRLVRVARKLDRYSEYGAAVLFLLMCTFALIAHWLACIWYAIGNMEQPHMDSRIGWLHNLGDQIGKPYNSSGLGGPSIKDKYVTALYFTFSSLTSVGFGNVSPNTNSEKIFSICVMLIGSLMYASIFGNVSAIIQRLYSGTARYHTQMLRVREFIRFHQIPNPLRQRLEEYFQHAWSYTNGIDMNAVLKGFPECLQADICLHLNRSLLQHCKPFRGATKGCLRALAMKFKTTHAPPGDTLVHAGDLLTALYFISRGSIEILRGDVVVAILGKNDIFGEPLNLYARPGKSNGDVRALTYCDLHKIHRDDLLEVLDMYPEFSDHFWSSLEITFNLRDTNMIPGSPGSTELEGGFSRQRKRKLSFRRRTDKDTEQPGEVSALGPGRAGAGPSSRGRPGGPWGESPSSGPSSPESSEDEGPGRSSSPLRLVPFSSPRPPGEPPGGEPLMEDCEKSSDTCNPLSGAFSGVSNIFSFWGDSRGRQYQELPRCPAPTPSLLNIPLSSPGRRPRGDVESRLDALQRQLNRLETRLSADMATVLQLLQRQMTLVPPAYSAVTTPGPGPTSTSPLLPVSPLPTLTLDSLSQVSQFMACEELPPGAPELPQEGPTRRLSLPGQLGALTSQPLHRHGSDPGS
Method: III. Manual Patch-Clamp Detection of the Effect of Compounds on hERG Channel Currents Stably Expressed in HEK293 Cells
A 30 mM stock solution of compound 147 was prepared in DMSO. The stock solution was serially diluted with DMSO to prepare secondary stock solutions of 10 mM, 3 mM, 1 mM, and 0.3 mM. 10 μL of the secondary stock solution was diluted in 10 mL of extracellular solution to prepare final concentrations of 30 μM, […], 3 μM, 1 μM, and 0.3 μM for electrophysiological detection. A 10 mM stock solution of the positive control, cisapride, was prepared in DMSO. The stock solution was serially diluted with DMSO to prepare secondary stock solutions of 1000 μM, 100 μM, 10 μM, 1 μM, and 0.1 μM. 10 μL of the secondary stock solution was diluted in 10 mL of extracellular solution to prepare final concentrations of 1000 nM, 100 nM, 10 nM, 1 nM, and 0.1 nM for electrophysiological detection. […]
d. […] The current was recorded once every 15 s.
e. The hERG potassium channel current was recorded at room temperature before drug addition. […]
The original data hERG tail current peak values were extracted from the PatchMaster software. The current inhibition rate was calculated using the following formula:
The mean and standard error were calculated for each concentration. […]

CDK13 [5] = biological target: T2, CDK13; test: Western blot degradation of CDK13 (Example 3); assay type: cell-based; parameters: degradation of CDK12/13 protein in leukemia cells KASUMI-1, MV4-11, and Jurkat; endogenous in cells
[6] = system: tumor cells MDA-MB-231, MV4-11, and KASUMI-1 and normal cells L-02 and HK-2; test: Survival of tumor and normal cells (CCK8 / SRB); assay type: cell-based; conditions: 72 h, concentration gradient, FIG. 10
Method: The proliferation inhibition of compounds on leukemia cell lines MV4-11 and KASUMI-1 was determined using the CCK8 assay, while the inhibition on solid tumor cell lines MDA-MB-231 was determined using the Sulforhodamine B (SRB) assay.
CCK8 Assay: First, MV4-11 and KASUMI-1 cells were seeded in a 96-well plate at a density of 5,000 cells per well. Then, a concentration gradient (0.03 μM-10 μM) of the compounds was administered for 72 h, with DMSO solvent serving as the negative control. At the end of the treatment, 10 μL of CCK8 reagent was added to each well. The plate was incubated for 4 hours at 37 °C in the dark. After mixing, the absorbance value was measured at 450 nm.
SRB Assay: First, MDA-MB-231, L-02, and HK-2 cells were seeded in a 96-well plate at a density of 3,000 cells per well. After 8-12 h of cell adhesion, a concentration gradient (62.5 nM-10 μM) of the compounds was administered for 72 h, with DMSO solvent serving as the negative control. At the end of the treatment, the cells were washed once with 70 μL of PBS, then fixed with 70 μL of 10% trichloroacetic acid at 4 °C for 1 h. After rinsing with tap water and drying in an oven, 70 μL of SRB staining solution was added to each well for 20 min at room temperature. […] Finally, 150 μL of 10 mM Tris-base dissolving solution was added, and the plate was shaken for 15 min before the absorbance value was measured at 540 nm.

Structure (SMILES) | reversal of CDK12 degradation by MG132 (CDK12 [1]) | half-life [2] [h] | reversal of CDK13 degradation by MG132 (CDK13 [3]) | DC50 (CDK12 [4]; DC50 classes, cell line not given, read-out: CDK12 degradation Activity) [nM] | DC50 (CDK12 [4]; HCT116, colorectal cancer cells, read-out: CDK12 DC50) [nM] | DC50 (CDK12 [4]; KASUMI-1, leukemia cells, read-out: CDK12 DC50) [nM] | DC50 (CDK12 [4]; MDA-MB-231, breast cancer cells, read-out: CDK12 DC50) [nM] | reversal of CCNK degradation by MG132 (CCNK) | inhibitory effect on the hERG channel (hERG channel) | DC50 (CDK13 [5]; DC50 classes, cell line not given, read-out: CDK13 degradation Activity) [nM] | DC50 (CDK13 [5]; HCT116, colorectal cancer cells, read-out: CDK13 DC50) [nM] | DC50 (CDK13 [5]; KASUMI-1, leukemia cells, read-out: CDK13 DC50) [nM] | DC50 (CDK13 [5]; MDA-MB-231, breast cancer cells, read-out: CDK13 DC50) [nM] | proliferation inhibitory activity on normal and tumor cells [6]
CC(=O)N(c1ccc(-c2ccc(N3CCN(CC(=O)N[C@H](C(=O)N4C[C@H](O)C[C@H]4C(=O)N[C@@H](C)c4ccc(-c5scnc5C)cc4)C(C)(C)C)CC3)nc2)cc1)[C@H]1CC[C@H](Nc2ncc3ccccc3n2)CC1 [Formula 147, (2S,4R)-1-((S)-3,3-dimethyl-2-(2-(4-(5-(4-(N-((1R,4R)-4-(quinazolin-2-ylamino)cyclohexyl)acetamido)phenyl)pyridin-2-yl)piperazin-1-yl)acetamido)butanoyl)-4-hydroxy-N—((S)-1-(4-(4-methylthiazol-5-yl)phenyl)ethyl)pyrrolidine-2-carboxamide] | can reverse the degradation of CDK12/13 and CCNK | 2.58 | can reverse the degradation of CDK12/13 and CCNK | < 100 | 13 | 17 | 15 | can reverse the degradation of CDK12/13 and CCNK | weak or no inhibitory effect on the hERG channel | < 100 | 15 | 10 | 9 | –
CN(C)C/C=C/C(=O)Nc1ccc(C(=O)N2CCC[C@@H](Nc3ncc(Cl)c(-c4c[nH]c5ccccc45)n3)C2)cc1 [THZ-531] | – | – | – | – | – | – | – | – | – | – | – | – | – | indiscriminate proliferation inhibitory activity on both normal and tumor cells
